According to patent publication US4221794A, “Method of imparting immunomodulating and antiviral activity” (Newport Pharmaceuticals International, Inc., priority 1979, dated 1980):

What was measured:
influenza virus [1] = assay: microbe, parasite or virus in culture; assay type: cell-based, influenza virus Type A/USSR 90 (HeLa cell cultures); settings: for inhibition at 100 µg/mL: read-out: % Inhibition of Hemadsorption Foci, Test Compound Conc. >100 μg/ml
influenza virus [2] = assay: Anti-influenza activity (overall); assay type: cell-based, several strains of A and B sub-types
[3] = test system: human peripheral blood lymphocytes; assay: Mitogen (PHA) induced human lymphocyte proliferation; assay type: cell-based; settings: plus = immunostimulating, minus = immunoinhibiting, 0 = neither
mouse lymphocytes = assay: Mitogen (Con A) induced mouse lymphocyte (spleen cell) proliferation; assay type: cell-based; settings: plus = immunostimulating, minus = immunoinhibiting, 0 = neither
Text: The following three assay procedures are used to evaluate the ability of the test substances to modulate the activity of several classes of cells in the immune system. In these systems it is possible to identify both immunopotentiating activity (evidence by an enhancement of the parameter examined) as well as immunosuppressant activity (evidenced by an inhibition of the parameter examined).
1. Mitogen-Induced Mouse Spleen Cell Assay
Mouse spleen cells contain a population of both B and T lymphocytes which can be stimulated by a number of foreign substances (e.g., plant mitogens such as Con A) to proliferate. This enhanced proliferation is an indication of enhanced cell mediated immunity. The method below describes the system used to evaluate test substances as immunopotentiators.
Concanavalin A (Calbiochem, La Jolla, California), Lot #210073, lyophilized in NaCl, was prepared first as a 1% solution and diluted as a 2×concentration for each dilution (0.5, 1.0, 2.5 μg/ml).
Six to eight week old male Balb/c and C3 H inbred mice were obtained from the following sources: Flow Research Animals, Inc., Dublin, Virginia; Charles River Breeding Laboratories, Wilmington, Massachusetts; Laboratory Supply Company, Indianapolis, Indiana; and Lionel Strong Foundation, San Diego, California.
Three to five mice were sacrificed by cervical dislocation and the spleens aseptically removed. Pooled spleens were minced and teased with sterile forceps; then strained through a double layer of nylon mesh. The cell suspension was washed once with 15 ml of RPMI 1640 supplemented with 5% fetal calf serum and antibiotics. Cells were cultured at a concentration of 10^6 cells/0.1 ml/well in micro-plates. Cultures were incubated in the presence or absence of mitogen in a humidified atmosphere containing 5% CO2 for 48 hours. The test compound was added to cultures at various concentrations concommitant with mitogen.
Proliferation was assayed by the degree of incorporation of 1.0 μCi of [^3 H] thymidine over an 18 hour incubation period. Cultures were harvested by a MASH unit (Otto Hiller Co., Madison, Wisconsin) and thymidine incorporation was assayed by liquid scintillation spectrometry. Cultures were performed in triplicate and data are expressed as means plus or minus the standard error of the experimental means. Drug stimulation indices over control values were also calculated and portrayed graphically.
Table 4 above presents the results of an evaluation of a number of these subject compounds as potentiators of the immune response. Three different test systems were used. The first involves a measure of the ability of the test compound to enhance the ability of mouse lymphocytes to proliferate in response to a plant mitogen (Con A). The second involves measuring the ability of the test compounds to enhance human lymphocyte proliferation in response to a second plant mitogen (PHA). The third system measures the ability of these test substances to enhance macrophage proliferation in response to a natural lymphokine (MMF, Macrophage Mitogenic Factor).

SMILES | inhibition at 100 µg/mL (influenza virus [1]; unidentified influenza virus) [%] | potentiation of anti-influenza activity by DIP.PAcBA salt (influenza virus [2]) | Maximum Percent Change, Mitogen Induced (PHA) Human Lymph. Prolif. ([3]; 1.0-10 (unit not given)) [%] | Maximum Percent Change, Mitogen Induced (PHA) Human Lymph. Prolif. ([3]; 10-100 (unit not given)) [%] | Maximum Percent Change, Mitogen Induced (PHA) Human Lymph. Prolif. ([3]; .01-1.0 (unit not given)) [%] | also measured
OCCn1cnc2c(S)ncnc21 [NPT 15437] | 65 | Yes |  |  |  | 
CC(O)Cn1cnc2c(=O)[nH]cnc21 (stereo not drawn) [NPT 15447] |  | Yes |  |  |  | % Inhibition of Hemadsorption Foci (influenza virus [1]; Test Compound Conc. <10 μg/ml, listed as 15447): 10%; % Inhibition of Hemadsorption Foci (influenza virus [1]; Test Compound Conc. >100 μg/ml, listed as 15447): 34%
CC(O)Cn1cnc2c(N)ncnc21 (stereo not drawn) [NPT 15432] |  | Yes |  |  |  | % Inhibition of Hemadsorption Foci (influenza virus [1]; Test Compound Conc. >100 μg/ml, listed as 15432): 62%
OCCn1cnc2c(=S)[nH]cnc21 [NPT 15435] | 10 |  | 45 | -50 | 55 | 
CC(CO)n1cnc2c(N)ncnc21 (stereo not drawn) [NPT 15433, 9-(1-HYDROXY-2-PROPYL)ADENINE] |  |  | 0 | -50 | 53 | % Inhibition of Hemadsorption Foci (influenza virus [1]; Test Compound Conc. >100 μg/ml, listed as 15433): 0%; Maximum Percent Change, Mitogen Induced (Con A) Mouse Lymph. Prolif. (mouse lymphocytes; 1.0-10 (unit not given)): -23%; Maximum Percent Change, Mitogen Induced (Con A) Mouse Lymph. Prolif. (mouse lymphocytes; 10-100 (unit not given)): -65%; Maximum Percent Change, Mitogen Induced (Con A) Mouse Lymph. Prolif. (mouse lymphocytes; .01-1.0 (unit not given)): +15%
CC(CO)n1cnc2c(Cl)ncnc21 (stereo not drawn) [NPT 15423, 9-(1-HYDROXY-2-PROPANE)-6-CHLOROPURINE] | 6 |  |  |  |  | inhibition at 10 µg/mL (influenza virus [1]; unidentified influenza virus, read-out: % Inhibition of Hemadsorption Foci, Test Compound Conc. <10 μg/ml): 2%
CC(O)Cn1cnc2c(N)ncnc21 (stereo not drawn) [NPT 15431, 9-(2-HYDROXY-1-PROPYL)ADENINE] |  |  | 0 | 0 | 0 | % Inhibition of Hemadsorption Foci (influenza virus [1]; Test Compound Conc. >100 μg/ml, listed as 15431): 0%; Maximum Percent Change, Mitogen Induced (Con A) Mouse Lymph. Prolif. (mouse lymphocytes; 1.0-10 (unit not given)): -27%; Maximum Percent Change, Mitogen Induced (Con A) Mouse Lymph. Prolif. (mouse lymphocytes; 10-100 (unit not given)): -47%; Maximum Percent Change, Mitogen Induced (Con A) Mouse Lymph. Prolif. (mouse lymphocytes; .01-1.0 (unit not given)): -15%
